Laboratory results as given in patent US8754049B2, “Organic compound for the regulation of vectorial ion channels” (APEPTICO Forschung und Entwicklung GmbH, priority 2010, dated 2014).
Non-standard residues stand in square brackets, D forms with d. Residues, ends and D or L forms follow the SMILES beside them. Ahp = NCCCCCCC(=O)O

How the values were obtained:
[1] = molecular target: T1, epithelial sodium channels (Homo sapiens, UniProt P37088+P51168+P51170); assay: Patch-clamp measurement, whole cell configuration, amiloride-sensitive sodium current in A549 cells; format: cell-based; conditions: for Activity in comparison to a peptide SEQ ID NO: 10 CGQRETPEGAEKPWYC ("TIP-Peptid", Lucas et al. Science 1994 also WO00/09149): whole cell patch-clamp, A549 cells, amiloride-sensitive sodium current, relative to TIP peptide SEQ ID NO: 10
T1 construct: endogenous in cells; host or cells: A549 human lung epithelial cells (ATTC No. CCL-185)
T1 sequence (P51170 whole entry): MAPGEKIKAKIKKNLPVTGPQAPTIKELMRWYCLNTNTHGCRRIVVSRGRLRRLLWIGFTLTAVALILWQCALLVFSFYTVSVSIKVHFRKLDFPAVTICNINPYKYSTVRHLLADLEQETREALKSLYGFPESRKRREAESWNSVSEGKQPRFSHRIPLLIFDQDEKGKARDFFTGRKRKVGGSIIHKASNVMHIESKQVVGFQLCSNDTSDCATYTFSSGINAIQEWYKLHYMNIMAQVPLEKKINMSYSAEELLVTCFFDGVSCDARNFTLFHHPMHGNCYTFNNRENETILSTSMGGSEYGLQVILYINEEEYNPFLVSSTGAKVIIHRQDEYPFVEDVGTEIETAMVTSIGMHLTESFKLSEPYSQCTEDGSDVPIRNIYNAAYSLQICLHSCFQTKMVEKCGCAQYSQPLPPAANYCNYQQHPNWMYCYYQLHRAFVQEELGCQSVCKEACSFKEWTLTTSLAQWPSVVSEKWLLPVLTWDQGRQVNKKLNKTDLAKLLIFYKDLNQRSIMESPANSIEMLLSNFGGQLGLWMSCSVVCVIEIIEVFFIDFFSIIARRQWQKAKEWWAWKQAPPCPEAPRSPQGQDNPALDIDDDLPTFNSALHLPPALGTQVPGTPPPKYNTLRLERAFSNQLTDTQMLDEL
T1 sequence (P37088 whole entry): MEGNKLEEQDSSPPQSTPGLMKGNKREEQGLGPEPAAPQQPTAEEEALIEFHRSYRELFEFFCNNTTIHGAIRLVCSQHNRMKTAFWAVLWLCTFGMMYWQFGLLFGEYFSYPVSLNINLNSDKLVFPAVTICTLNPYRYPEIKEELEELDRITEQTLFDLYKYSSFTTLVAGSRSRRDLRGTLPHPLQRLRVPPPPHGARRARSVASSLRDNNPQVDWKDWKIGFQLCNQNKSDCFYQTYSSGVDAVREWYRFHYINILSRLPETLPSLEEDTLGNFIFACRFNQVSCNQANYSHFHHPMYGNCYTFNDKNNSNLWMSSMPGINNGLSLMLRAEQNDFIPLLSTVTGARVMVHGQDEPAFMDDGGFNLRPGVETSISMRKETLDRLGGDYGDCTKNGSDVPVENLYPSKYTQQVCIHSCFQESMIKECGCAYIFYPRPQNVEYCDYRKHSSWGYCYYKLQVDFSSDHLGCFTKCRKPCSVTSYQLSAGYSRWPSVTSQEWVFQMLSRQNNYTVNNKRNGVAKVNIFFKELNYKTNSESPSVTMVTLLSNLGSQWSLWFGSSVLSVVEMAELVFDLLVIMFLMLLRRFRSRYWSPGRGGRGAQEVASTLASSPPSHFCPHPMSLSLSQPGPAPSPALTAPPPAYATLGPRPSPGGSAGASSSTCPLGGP
T1 sequence (P51168 whole entry): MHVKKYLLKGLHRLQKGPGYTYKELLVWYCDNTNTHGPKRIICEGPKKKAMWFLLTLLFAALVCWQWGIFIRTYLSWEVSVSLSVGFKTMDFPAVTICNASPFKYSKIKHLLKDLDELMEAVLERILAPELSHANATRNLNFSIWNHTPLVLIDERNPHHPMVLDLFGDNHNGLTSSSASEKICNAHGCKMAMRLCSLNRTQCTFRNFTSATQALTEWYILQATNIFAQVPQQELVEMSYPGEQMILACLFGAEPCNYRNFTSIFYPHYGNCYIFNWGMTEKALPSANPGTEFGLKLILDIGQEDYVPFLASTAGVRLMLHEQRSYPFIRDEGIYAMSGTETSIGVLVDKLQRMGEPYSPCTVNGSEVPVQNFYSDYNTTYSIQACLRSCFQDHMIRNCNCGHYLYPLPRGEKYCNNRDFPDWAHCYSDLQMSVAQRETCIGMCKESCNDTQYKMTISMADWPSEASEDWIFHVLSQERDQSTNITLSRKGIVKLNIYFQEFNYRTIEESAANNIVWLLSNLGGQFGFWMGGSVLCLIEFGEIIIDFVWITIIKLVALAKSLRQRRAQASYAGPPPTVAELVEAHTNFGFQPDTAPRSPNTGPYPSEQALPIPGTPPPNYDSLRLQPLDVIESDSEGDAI
Text: The detection of a vectorial regulation of ion channels by a compound may be effected according to a method common in laboratories, for example, according to Clunes M. T. et al., J. Physiolo. (2004) 557.3: 809-819), via patch-clamp experiments. For patch-clamp examinations of ion channels, a glass cannula is stretched thin and filled with a neutral buffer solution. The glass cannula (patch-clamp pipette) is carefully pressed onto an intact epithelial cell. A piece of membrane is located below the pipette. An electrical resistance is thereby produced between the interior of the pipette and the external solution. An electrode attached to a sensitive amplifier dips into the pipette solution.
A regulation of the vectorial epithelial ion channels is detected via a change in the current intensity with a constant voltage.
(§1) The electrophysiological experiments were performed on human A549 cells (ATTC No. CCL-185). A549 cells are human lung epithelial cells which are involved in the diffusion of water and electrolytes in the lungs. The cells were suspended in RPMI-1640 medium (Sigma-Aldrich, product number R6504) with 1% penicillin/streptomycin and 10% fetal calf serum, transferred into plastic cell culture vessels and cultivated in an incubator with 95% air and 5% CO2 at 37° C. The medium was changed 2 to 3 times per week. The cells double within approx. 22 hours, and a cell concentration of more than 7×10^4 cells per cm^2 was not exceeded.
For the patch-clamp experiments, the cells were transferred onto small glass plates.
Macroscopic currents were discharged from A549 cells in the “whole cell” configuration of the “patch-clamp” technique (Hamill et al, Pflugers Arch. 1981, 391(2):85-100, 1981). For the current dissipations in the “whole cell” configuration, the following bath and electrode solutions were used:
Bath solution: 135 mM sodium methanesulfonate, 10 mM NaCl, 2.7 mM KCl, 1.8 mM CaCl2, 2 mM MgCl2, 5.5 mM glucose, and 10 mM HEPES, pH 7.4.
Electrode solution: 120 mM potassium methanesulfonate, 15 mM KCl, 6 mM NaCl, 1 mM Mg2ATP, 2 mM Na3ATP, 10 mM HEPES, and 0.5 mM EGTA (pH 7.2).
Cover slips with the cells cultivated thereon were transferred into a test bath with a capacity of 1 ml, fixed on the microscope table (Axiovert 100, 400-fold magnification), and the cells were superfused with the above-described bath solution. Thereupon, the current was discharged from a suitable cell (which adheres to the cover slip). For this purpose, a microelectrode filled with an electrolyte solution (glass capillary with a defined, heat-polished tip opening of about 1-3 μm, corresponding to a resistance of the electrode tip of […]) was placed on the cell and the membrane was sucked in so that a “Gigaohm seal” was formed between the membrane and the electrode in order to minimize the leakage current. In the “whole cell” configuration, the membrane was penetrated beneath the electrode tip so that the current flowing through all ion channels of the cell could be measured. Upon obtaining a Gigaohm seal, a defined membrane retaining potential was applied via a pre-amplifier (CV-4 Headstage, Axon Instruments) and an amplifier (Axopatch 1 D, Axon Instr.) and the current thereby flowing through the ion channels was measured.
The pulse protocol consisted of a hyperpolarization of the cell membrane to −100 mV for 5 s and a subsequent gradual depolarization to +100 mV in 20 mV steps.
This protocol was performed before (control) and after the addition of ring-shaped organic molecules. The current dissipations thus obtained were stored and analyzed by means of the program PCLAMP 6.0. For this purpose, the current dissipations obtained in the presence of amiloride were subtracted from the currents recorded earlier so that the amiloride-sensitive sodium current through the epithelial sodium channels could be determined.

human A549 cells = assay: Microscopic observation of A549 cells after addition of compounds; format: cell-based; conditions: microscopic observation after addition of compound
Method: as §1
The cells were microscopically observed.

Compound | Activity in comparison to a peptide SEQ ID NO: 10 CGQRETPEGAEKPWYC ("TIP-Peptid", Lucas et al. Science 1994 also WO00/09149) [1] [%] | changes in morphology or cell growth (human A549 cells) | death of cells (human A549 cells) | activation of the vectorial ionic current compared with known peptides SEQ ID NO: 10, 11 and 12 ([1]; patch-clamp, comparison in words)
C[C@@H]1NC(=O)CNC(=O)[C@H](CCC(=O)O)NC(=O)[C@@H]2CCCN2C(=O)[C@H]([C@@H](C)O)NC(=O)[C@H](CCC(=O)O)NC(=O)[C@H](CCCNC(=N)N)NC(=O)[C@H](CCC(N)=O)NC(=O)CNC(=O)[C@@H](N)CCCCNC(=O)CNC(=O)[C@H](Cc2ccc(O)cc2)NC(=O)[C@H](Cc2c[nH]c3ccccc23)NC(=O)[C@@H]2CCCN2C(=O)[C@H](CCCCN)NC(=O)[C@H](C)NC(=O)[C@H](CCC(=O)O)NC1=O [SEQ ID NO: 1, [KGQRETPEGAEAKPWYG] (cyclo Kepsilon1-G17)] | 150 | did not produce any changes in morphology or cell growth | did not result in the death of cells | 
C[C@@H]1NC(=O)CNC(=O)[C@H](CCC(=O)O)NC(=O)[C@@H]2CCCN2C(=O)[C@H]([C@@H](C)O)NC(=O)[C@H](CCC(=O)O)NC(=O)[C@H](CCCNC(=N)N)NC(=O)[C@H](CCC(N)=O)NC(=O)CNC(=O)[C@@H](N)CCCNC(=O)CNC(=O)[C@H](Cc2ccc(O)cc2)NC(=O)[C@H](Cc2c[nH]c3ccccc23)NC(=O)[C@@H]2CCCN2C(=O)[C@H](CCCCN)NC(=O)[C@H](C)NC(=O)[C@H](CCC(=O)O)NC1=O [SEQ ID NO: 2, [ornithine-GQRETPEGAEAKPWYG] (cyclo Orn-delta1-G17)] | 115 | did not produce any changes in morphology or cell growth | did not result in the death of cells | 
C[C@@H]1NC(=O)CNC(=O)[C@H](CCC(=O)O)NC(=O)[C@@H]2CCCN2C(=O)[C@H]([C@@H](C)O)NC(=O)[C@H](CCC(=O)O)NC(=O)[C@H](CCCNC(=N)N)NC(=O)[C@H](CCC(N)=O)NC(=O)CNC(=O)CCCCNC(=O)CNC(=O)[C@H](Cc2ccc(O)cc2)NC(=O)[C@H](Cc2c[nH]c3ccccc23)NC(=O)[C@@H]2CCCN2C(=O)[C@H](CCCCN)NC(=O)[C@H](C)NC(=O)[C@H](CCC(=O)O)NC1=O [SEQ ID NO: 3, [5-amino-pentanoic acid-GQRETPEGAEAKPWYG] (cyclo 1-17)] |  | did not produce any changes in morphology or cell growth | did not result in the death of cells | 
C[C@@H]1NC(=O)CNC(=O)[C@H](CCC(=O)O)NC(=O)[C@@H]2CCCN2C(=O)[C@H]([C@@H](C)O)NC(=O)[C@H](CCC(=O)O)NC(=O)[C@H](CCCNC(=N)N)NC(=O)[C@H](CCC(N)=O)NC(=O)CNC(=O)CCCNC(=O)CNC(=O)[C@H](Cc2ccc(O)cc2)NC(=O)[C@H](Cc2c[nH]c3ccccc23)NC(=O)[C@@H]2CCCN2C(=O)[C@H](CCCCN)NC(=O)[C@H](C)NC(=O)[C@H](CCC(=O)O)NC1=O [SEQ ID NO: 4, [gamma-aminobutyric acid-GQRETPEGAEAKPWYG] (cyclo 1-17)] |  | did not produce any changes in morphology or cell growth | did not result in the death of cells | 
C[C@@H]1NC(=O)CNC(=O)[C@H](CCC(=O)O)NC(=O)[C@@H]2CCCN2C(=O)[C@H]([C@@H](C)O)NC(=O)[C@H](CCC(=O)O)NC(=O)[C@H](CCCNC(=N)N)NC(=O)[C@H](CCC(N)=O)NC(=O)CNC(=O)CCCNC(=O)C[C@@H](C(=O)O)NC(=O)[C@H](Cc2ccc(O)cc2)NC(=O)[C@H](Cc2c[nH]c3ccccc23)NC(=O)[C@@H]2CCCN2C(=O)[C@H](CCCCN)NC(=O)[C@H](C)NC(=O)[C@H](CCC(=O)O)NC1=O [SEQ ID NO: 5, [gamma-aminobutyric acid-GQRETPEGAEAKPWYD-OH] (cyclo 1-Dγ17)] | 160 | did not produce any changes in morphology or cell growth | did not result in the death of cells | 
C[C@@H]1NC(=O)CNC(=O)[C@H](CCC(=O)O)NC(=O)[C@@H]2CCCN2C(=O)[C@H]([C@@H](C)O)NC(=O)[C@H](CCC(=O)O)NC(=O)[C@H](CCCNC(=N)N)NC(=O)[C@H](CCC(N)=O)NC(=O)CNC(=O)CCNC(=O)CC[C@@H](C(=O)O)NC(=O)[C@H](Cc2ccc(O)cc2)NC(=O)[C@H](Cc2c[nH]c3ccccc23)NC(=O)[C@@H]2CCCN2C(=O)[C@H](CCCCN)NC(=O)[C@H](C)NC(=O)[C@H](CCC(=O)O)NC1=O [SEQ ID NO: 6, [3-amino-propanoic acid-GQRETPEGAEAKPWYE-OH] (cyclo 1-Eδ17)] | 150 | did not produce any changes in morphology or cell growth | did not result in the death of cells | 
C[C@@H]1NC(=O)CNC(=O)[C@H](CCC(=O)O)NC(=O)[C@@H]2CCCN2C(=O)[C@H]([C@@H](C)O)NC(=O)[C@H](CCC(=O)O)NC(=O)[C@H](CCCNC(=N)N)NC(=O)[C@H](CCC(N)=O)NC(=O)CNC(=O)CCCCCCNC(=O)[C@H](Cc2ccc(O)cc2)NC(=O)[C@H](Cc2c[nH]c3ccccc23)NC(=O)[C@@H]2CCCN2C(=O)[C@H](CCCCN)NC(=O)[C@H](C)NC(=O)[C@H](CCC(=O)O)NC1=O [SEQ ID NO: 7, [7-amino-heptanoic acid-GQRETPEGAEAKPWY] (cyclo 1-16)] (cyclo(AEAKPWY[Ahp]GQRETPEG)) |  | did not produce any changes in morphology or cell growth | did not result in the death of cells | 
CGTKPIELGPDEPKAVC (peptide published in EP 2 009 023) [SEQ ID NO: 11, known peptide for controlling fluid content in the alveoli, from EP 2 009 023, reference compound] | 80 |  |  | 
LSPGQRETPEGAEAKPWYE (peptide published in WO 2009/073909) [SEQ ID NO: 12, known peptide from WO2009/073909 (PCT AT2008 448), reference compound] | 60 |  |  | 
[6-amino-hexanoic acid-GQRETPEGAEAKPWYG] (cyclo 1-17) [SEQ ID NO: 8] | 150 | did not produce any changes in morphology or cell growth | did not result in the death of cells | significantly higher activations of the vectorial ionic current
